Experimental data taken from the supplement of paper PMC10307832.

Columns and labels:
Experiment in all cases: relative viability (nuclei count vs DMSO), 5 days (fraction); higher = more cells survive
[1] = compound: CC1(C)CNc2cc(NC(=O)c3cccnc3NCc3ccncc3)ccc21 [Motesanib] + COc1cc2c(Oc3ccc(NC(=O)C4(C(=O)Nc5ccc(F)cc5)CC4)cc3F)ccnc2cc1OCCCN1CCOCC1 [Foretinib] (partner 0.25 µM)
Outline: (§1)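 One day after seeding in 1536-well plates, lung cancer cell lines were dosed by pin tool. Dosing was either single-drug or a fixed anchor-drug dose plus five library-drug doses (not always all listed) in √10 steps. After 5 days, nuclei were stained in one fix-and-stain step and counted on 4× images, and relative viability is the nuclei count of treated wells over that of vehicle wells, given as the median of duplicate plates.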

[2] = compound: C[C@@]1(C(=O)Nc2ccc(F)nc2)CCCN1c1nc(Nc2cc(C3CC3)n[nH]2)c2cccn2n1 + CS(=O)(=O)N1CCN(Cc2cc3nc(-c4cccc5[nH]ncc45)nc(N4CCOCC4)c3s2)CC1 [Pictilisib] (partner 1 µM)
Outline: as §1

[3] = compound: CC1(C)CNc2cc(NC(=O)c3cccnc3NCc3ccncc3)ccc21 [Motesanib] + C[C@]1(O)C[C@@H](c2nc(-c3ccc4ccc(-c5ccccc5)nc4c3)c3c(N)nccn32)C1 [Linsitinib] (partner 1 µM)
Outline: as §1

[4] = compound: CC1(C)CNc2cc(NC(=O)c3cccnc3NCc3ccncc3)ccc21 [Motesanib] + C[C@@H](Oc1cc(-c2cnn(C3CCNCC3)c2)cnc1N)c1c(Cl)ccc(F)c1Cl [Crizotinib] (partner 1 µM)
Outline: as §1

Cell Line | relative viability ([1]; first compound 0.01 µM) | relative viability ([1]; first compound 0.03162 µM) | relative viability ([1]; first compound 0.1 µM) | relative viability ([1]; first compound 0.3162 µM) | relative viability ([1]; first compound 1 µM) | relative viability ([2]; first compound 0.04 µM) | relative viability ([2]; first compound 0.1265 µM) | relative viability ([2]; first compound 0.4 µM) | relative viability ([2]; first compound 1.265 µM) | relative viability ([3]; first compound 0.03162 µM) | relative viability ([3]; first compound 0.1 µM) | relative viability ([3]; first compound 0.3162 µM) | relative viability ([3]; first compound 1 µM) | relative viability ([4]; first compound 0.03162 µM) | relative viability ([4]; first compound 0.1 µM) | relative viability ([4]; first compound 0.3162 µM) | relative viability ([4]; first compound 1 µM) | relative viability ([3]; first compound 0.01 µM) | relative viability ([4]; first compound 0.01 µM)
LCLC-103H | 0.809 | 0.707 | 0.844 | 0.867 | 0.937 | 0.501 | 0.497 | 0.366 | 0.441 | 1.1 | 1.12 | 1.09 | 1.02 | 1.13 | 0.986 | 1.08 | 1.15 |  | 
LCLC-97TM1 | 0.948 | 0.968 | 0.976 | 0.919 | 0.979 | 0.139 | 0.151 | 0.159 | 0.136 | 0.164 | 0.2 | 0.182 | 0.2 | 0.429 | 0.373 | 0.469 | 0.486 | 0.171 | 0.362
NCI-H727 | 0.707 | 0.98 | 0.854 | 1.09 | 0.883 | 0.328 | 0.179 | 0.306 | 0.155 | 0.329 | 0.304 | 0.292 | 0.15 | 0.839 | 0.786 | 0.808 | 0.723 | 0.3 | 0.96
NCI-H1355 | 1.02 | 0.96 | 1.02 | 1.01 | 1.03 | 0.428 | 0.462 | 0.332 | 0.439 | 0.75 | 0.801 | 0.865 | 0.834 | 1.14 | 0.994 | 1.07 | 1.05 | 0.792 | 1.12
HOP-62 | 1.17 | 1.1 | 1.02 | 1.1 | 1.21 | 0.882 | 0.632 | 0.525 | 0.818 | 0.956 | 0.806 | 1.05 | 1.03 | 0.82 | 0.859 | 1.05 | 0.932 | 0.732 | 0.899
NCI-H2085 | 0.896 | 1.22 | 0.973 | 1.07 | 1.03 | 0.487 | 0.46 | 0.469 | 0.495 | 0.853 | 1.13 | 0.996 | 0.886 | 0.846 | 1.05 | 0.807 | 0.756 | 0.936 | 0.924
